Assays:
[1] = Spectroscopic properties of the BDM library (absorbance and emission maxima); format: physicochemical
[2] = Quantum yield measurements; format: physicochemical; conditions: referred to Rhodamine B in EtOH, excitation 510 nm, emission integrated 540-800 nm
Procedure: Quantum yields were calculated by measuring the integrated emission area of the fluorescent spectra, and referring them to the area measured for Rhodamine B in EtOH after excitation at 510 nm (ΦRho-B=0.70). Quantum yields for the BDM products were then calculated using equation below, where F represents the area of fluorescent emission, n is reflective index of the solvent, and Abs is absorbance at excitation wavelength selected for standards and samples. Emission was integrated from 540 nm to 800 nm.

| SMILES | λmax (ABS) [1] [nm] | λmax (EM) [1] [nm] | φ (quantum yield) [2] |
| --- | --- | --- | --- |
| CC1=CC(/C=C/c2ccc(-c3cncnc3)cc2)=[N+]2C1=C(CCN)c1cccn1[B-]2(F)F [BDM-199] | 562 | 574 | 0.18 |
| C=CCOc1ccccc1/C=C/C1=[N+]2C(=C(CCN)c3cccn3[B-]2(F)F)C(C)=C1 [BDM-202] | 559 | 575 | 0.52 |
| CC1=CC(/C=C/c2ccccc2Cl)=[N+]2C1=C(CCN)c1cccn1[B-]2(F)F [BDM-207] | 553 | 566 | 0.24 |
| CC1=CC(/C=C/c2ccc(C)cc2)=[N+]2C1=C(CCN)c1cccn1[B-]2(F)F [BDM-208] | 558 | 572 | 0.27 |
| COc1cc(/C=C/C2=[N+]3C(=C(CCN)c4cccn4[B-]3(F)F)C(C)=C2)cc(OC)c1 [BDM-209] | 555 | 567 | 0.38 |
| CC1=CC(/C=C/c2ccccc2OCc2ccccc2)=[N+]2C1=C(CCN)c1cccn1[B-]2(F)F [BDM-218] | 559 | 574 | 0.37 |
| COc1cc(Br)cc(/C=C/C2=[N+]3C(=C(CCN)c4cccn4[B-]3(F)F)C(C)=C2)c1OC [BDM-228] | 557 | 567 | 0.24 |
| CC1=CC(/C=C/c2cccc3c2OCO3)=[N+]2C1=C(CCN)c1cccn1[B-]2(F)F [BDM-231] | 558 | 568 | 0.17 |
| CC1=CC(/C=C/c2ccc(C)s2)=[N+]2C1=C(CCN)c1cccn1[B-]2(F)F [BDM-236] | 574 | 594 | 0.22 |
| CC1=CC(/C=C/c2ccc(I)cc2)=[N+]2C1=C(CCN)c1cccn1[B-]2(F)F [BDM-237] | 558 | 572 | 0.35 |
| COc1ccc(F)cc1/C=C/C1=[N+]2C(=C(CCN)c3cccn3[B-]2(F)F)C(C)=C1 [BDM-239] | 559 | 572 | 0.28 |
| CC1=CC(/C=C/c2ccccc2OC(F)F)=[N+]2C1=C(CCN)c1cccn1[B-]2(F)F [BDM-240] | 552 | 565 | 0.23 |
| COc1c(Br)cc(Br)cc1/C=C/C1=[N+]2C(=C(CCN)c3cccn3[B-]2(F)F)C(C)=C1 [BDM-241] | 560 | 576 | 0.32 |
| CC1=CC(/C=C/c2c(C)cccc2C)=[N+]2C1=C(CCN)c1cccn1[B-]2(F)F [BDM-243] | 543 | 565 | 0.87 |
| COc1ccc(F)c(/C=C/C2=[N+]3C(=C(CCN)c4cccn4[B-]3(F)F)C(C)=C2)c1 [BDM-245] | 555 | 563 | 0.32 |
| CC1=CC(/C=C/c2c(Cl)ccc(C)c2F)=[N+]2C1=C(CCN)c1cccn1[B-]2(F)F [BDM-246] | 554 | 566 | 0.17 |
| COc1cc(OC)c(/C=C/C2=[N+]3C(=C(CCN)c4cccn4[B-]3(F)F)C(C)=C2)cc1Br [BDM-247] | 571 | 599 | 0.54 |
| CC1=CC(/C=C/c2ccc(C)c(F)c2)=[N+]2C1=C(CCN)c1cccn1[B-]2(F)F [BDM-249] | 557 | 568 | 0.24 |
| CCc1ccccc1/C=C/C1=[N+]2C(=C(CCN)c3cccn3[B-]2(F)F)C(C)=C1 [BDM-251] | 556 | 572 | 0.22 |
| CCc1ccc(/C=C/C2=[N+]3C(=C(CCN)c4cccn4[B-]3(F)F)C(C)=C2)cc1[N+](=O)[O-] [BDM-252] | 556 | 569 | 0.08 |
| COc1cc(/C=C/C2=[N+]3C(=C(CCN)c4cccn4[B-]3(F)F)C(C)=C2)cc(Br)c1OC [BDM-259] | 559 | 573 | 0.35 |
| COc1ccc(/C=C/C2=[N+]3C(=C(CCN)c4cccn4[B-]3(F)F)C(C)=C2)cc1Br [BDM-260] | 564 | 582 | 0.05 |
| CCCCc1ccc(/C=C/C2=[N+]3C(=C(CCN)c4cccn4[B-]3(F)F)C(C)=C2)cc1 [BDM-263] | 559 | 571 | 0.26 |
| CC1=CC(/C=C/c2ccc(C)cc2Br)=[N+]2C1=C(CCN)c1cccn1[B-]2(F)F [BDM-267] | 558 | 573 | 0.21 |
